Details: Hot wire method

FC(F)(F)/C=C/Cl [(E)-1-chloro-3,3,3-trifluoroprop-1-ene]
Details	thermal conductivity [W/m/K]
342.12 K, 65469 kPa, Liquid	0.09982
342.13 K, 113 kPa, Gas	0.01416
342.15 K, 367 kPa, Gas	0.01454
342.2 K, 116 kPa, Gas	0.01425
342.2 K, 377 kPa, Gas	0.01421
342.21 K, 43755 kPa, Liquid	0.09113
342.24 K, 251 kPa, Gas	0.01415
342.24 K, 34289 kPa, Liquid	0.08779
342.26 K, 113 kPa, Gas	0.01361
342.29 K, 7805 kPa, Liquid	0.07547
342.3 K, 262 kPa, Gas	0.01427
342.32 K, 4001 kPa, Liquid	0.07309
342.32 K, 26065 kPa, Liquid	0.08477
342.33 K, 176 kPa, Gas	0.01391
342.34 K, 464 kPa, Gas	0.0141
342.34 K, 19039 kPa, Liquid	0.08156
342.35 K, 118 kPa, Gas	0.01366
342.37 K, 497 kPa, Liquid	0.07069
342.4 K, 364 kPa, Gas	0.01446
342.43 K, 179 kPa, Gas	0.01433
342.43 K, 7788 kPa, Liquid	0.07522
342.45 K, 465 kPa, Gas	0.01403
342.47 K, 113 kPa, Gas	0.01424
342.47 K, 12801 kPa, Liquid	0.07827
342.48 K, 4008 kPa, Liquid	0.07289
342.49 K, 19031 kPa, Liquid	0.08119
342.51 K, 249 kPa, Gas	0.01404
342.52 K, 491 kPa, Liquid	0.07043
342.54 K, 114 kPa, Gas	0.0136
342.55 K, 117 kPa, Gas	0.01427
342.55 K, 375 kPa, Gas	0.01415
342.57 K, 65460 kPa, Liquid	0.1005
342.59 K, 175 kPa, Gas	0.01391
342.6 K, 53948 kPa, Liquid	0.09634
342.61 K, 12792 kPa, Liquid	0.07793
342.64 K, 119 kPa, Gas	0.01361
342.66 K, 260 kPa, Gas	0.01427
342.67 K, 362 kPa, Gas	0.01441
342.68 K, 43762 kPa, Liquid	0.09267
342.7 K, 464 kPa, Gas	0.01406
342.72 K, 65463 kPa, Liquid	0.09997
342.73 K, 34274 kPa, Liquid	0.08854
342.75 K, 53929 kPa, Liquid	0.09616
342.8 K, 178 kPa, Gas	0.01445
342.8 K, 247 kPa, Gas	0.01402
342.8 K, 465 kPa, Gas	0.01412
342.8 K, 7784 kPa, Liquid	0.07528
342.84 K, 43753 kPa, Liquid	0.09232
342.85 K, 113 kPa, Gas	0.01425
342.85 K, 114 kPa, Gas	0.01353
342.86 K, 4005 kPa, Liquid	0.07287
342.89 K, 173 kPa, Gas	0.01384
342.9 K, 34279 kPa, Liquid	0.08837
342.91 K, 372 kPa, Gas	0.01419
342.92 K, 488 kPa, Liquid	0.07046
342.93 K, 359 kPa, Gas	0.01446
342.94 K, 116 kPa, Gas	0.01437
342.95 K, 121 kPa, Gas	0.01352
343.03 K, 258 kPa, Gas	0.01427
343.07 K, 464 kPa, Gas	0.01408
343.08 K, 246 kPa, Gas	0.01404
343.12 K, 496 kPa, Liquid	0.06933
343.14 K, 26056 kPa, Liquid	0.08389
343.17 K, 65460 kPa, Liquid	0.09977
343.19 K, 19024 kPa, Liquid	0.08036
343.2 K, 178 kPa, Gas	0.01442
343.22 K, 357 kPa, Gas	0.01443
343.23 K, 53929 kPa, Liquid	0.09614
343.27 K, 113 kPa, Gas	0.01431
343.3 K, 370 kPa, Gas	0.01421
343.34 K, 43755 kPa, Liquid	0.09204
343.35 K, 117 kPa, Gas	0.01424
343.35 K, 12789 kPa, Liquid	0.07705

— the NIST ThermoML archive (doi:10.1021/acs.jced.7b00106)
